Tests used:
Test in all cases: relative viability (nuclei count vs DMSO), 5 days (fraction); higher = more cells survive
[1] = compound: C1=CC=C2C(=C1)N=C(S2)C(C#N)C3=NC(=NC=C3)NCCC4=CN=CC=C4 + N=C(N)NC(=N)NCCc1ccccc1 [Phenformin] (partner 250 µM)
Procedure, shortened: (§1)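 Lung cancer cell lines were seeded in 1536-well plates and dosed by pin tool the next day, with either a single drug or a fixed anchor-drug dose combined with five library-drug doses (not always all listed) spaced in √10 steps. Five days later, one step fixed the cells and stained their nuclei (final 0.05% Triton X-100, 1% formaldehyde, 1 ug/ml Hoechst), and nuclei were counted on 4× images. Relative viability is the nuclei count in treated wells divided by the count in vehicle wells, and each value is the median of duplicate plates.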

CUDC-101 + Olaparib = compound: C#Cc1cccc(Nc2ncnc3cc(OC)c(OCCCCCCC(=O)NO)cc23)c1 [CUDC-101] + O=C(c1cc(Cc2n[nH]c(=O)c3ccccc23)ccc1F)N1CCN(C(=O)C2CC2)CC1 [Olaparib] (partner 8 µM)
Procedure, shortened: as §1

CUDC-101 + Pictilisib = compound: C#Cc1cccc(Nc2ncnc3cc(OC)c(OCCCCCCC(=O)NO)cc23)c1 [CUDC-101] + CS(=O)(=O)N1CCN(Cc2cc3nc(-c4cccc5[nH]ncc45)nc(N4CCOCC4)c3s2)CC1 [Pictilisib] (partner 1 µM)
Procedure, shortened: as §1

Vandetanib + AZD7762 = compound: COc1cc2/c(=N/c3ccc(Br)cc3F)nc[nH]c2cc1OCC1CCN(C)CC1 [Vandetanib] + NC(=O)Nc1cc(-c2cccc(F)c2)sc1C(=O)N[C@H]1CCCNC1 [AZD7762] (partner 0.2 µM)
Procedure, shortened: as §1

Cell Line | relative viability ([1]; first compound 0.005 µM) | relative viability ([1]; first compound 0.01581 µM) | relative viability ([1]; first compound 0.05 µM) | relative viability ([1]; first compound 0.1581 µM) | relative viability ([1]; first compound 0.5 µM) | relative viability (CUDC-101 + Olaparib; first compound 0.01 µM) | relative viability (CUDC-101 + Olaparib; first compound 0.03162 µM) | relative viability (CUDC-101 + Olaparib; first compound 0.1 µM) | relative viability (CUDC-101 + Olaparib; first compound 0.3162 µM) | relative viability (CUDC-101 + Olaparib; first compound 1 µM) | relative viability (CUDC-101 + Pictilisib; first compound 0.01 µM) | relative viability (CUDC-101 + Pictilisib; first compound 0.03162 µM) | relative viability (CUDC-101 + Pictilisib; first compound 0.1 µM) | relative viability (CUDC-101 + Pictilisib; first compound 0.3162 µM) | relative viability (CUDC-101 + Pictilisib; first compound 1 µM) | relative viability (Vandetanib + AZD7762; first compound 0.02 µM) | relative viability (Vandetanib + AZD7762; first compound 0.06325 µM) | relative viability (Vandetanib + AZD7762; first compound 0.2 µM) | relative viability (Vandetanib + AZD7762; first compound 0.6325 µM) | relative viability (Vandetanib + AZD7762; first compound 2 µM)
H3255 | 0.385 | 0.354 | 0.402 | 0.62 | 0.366 | 0.653 | 0.547 | 0.512 | 0.442 | 0.264 | 0.618 | 0.382 | 0.143 | 0.181 | 0.0818 | 0.898 | 0.812 | 0.824 | 0.636 | 0.377
NCI-H460 | 0.281 | 0.57 | 0.503 | 0.695 | 0.29 | 0.458 | 0.42 | 0.428 | 0.465 | 0.349 | 0.375 | 0.358 | 0.315 | 0.453 | 0.287 | 0.497 | 0.624 | 0.57 | 0.466 | 0.581
HOP-62 | 0.4 | 0.764 | 0.633 | 0.788 | 0.523 | 0.31 | 0.465 | 0.359 | 0.29 | 0.477 | 0.758 | 0.696 | 0.753 | 0.582 | 0.4 | 0.661 | 0.536 | 0.577 | 0.412 | 0.485
HCC-78 | 0.677 | 0.635 | 0.656 | 0.814 | 0.741 | 1.01 | 0.688 | 0.821 | 0.584 | 0.341 | 0.246 | 0.205 | 0.209 | 0.153 | 0.145 | 0.591 | 0.669 | 0.596 | 0.645 | 0.609
NCI-H2085 | 0.639 | 0.702 | 0.595 | 0.819 | 0.799 | 0.766 | 0.806 | 0.721 | 0.813 | 0.676 | 0.539 | 0.549 | 0.493 | 0.489 | 0.304 | 0.941 | 0.944 | 0.951 | 0.857 | 0.946
HARA | 0.474 | 0.484 | 0.488 | 0.46 | 0.465 | 1 | 0.844 |  | 0.418 | 0.154 | 0.684 | 0.475 | 0.293 | 0.215 | 0.157 | 0.262 | 0.448 | 0.396 | 0.18 | 0.312
201T | 0.415 | 0.425 | 0.423 | 0.504 | 0.346 | 0.867 | 0.817 | 0.806 | 0.8 | 0.793 | 0.702 | 0.653 | 0.636 | 0.626 | 0.59 | 0.675 | 0.62 | 0.626 | 0.588 | 0.614
EMC-BAC-2 | 0.413 | 0.517 | 0.516 | 0.657 | 0.368 | 0.493 | 0.485 | 0.485 | 0.532 | 0.376 | 0.531 | 0.61 | 0.606 | 0.557 | 0.351 | 1.08 | 1.08 | 1.12 | 1.11 | 0.973
NCI-H441 |  | 0.993 | 1 | 0.913 | 0.79 | 0.628 | 0.556 | 0.679 | 0.572 | 0.479 | 0.694 | 0.537 | 0.561 | 0.497 | 0.401 | 1.12 | 0.945 | 1.02 | 1.31 | 1.34
NCI-H1944 | 0.159 | 0.227 | 0.206 | 0.234 | 0.203 | 0.4 | 0.349 | 0.353 | 0.333 | 0.235 | 0.319 | 0.311 | 0.32 | 0.324 | 0.298 | 0.489 | 0.611 | 0.555 | 0.462 | 0.471
NCI-H727 |  | 0.577 | 0.45 | 0.55 | 0.641 | 0.797 | 0.623 | 0.708 | 0.699 | 0.461 | 0.412 | 0.355 | 0.283 | 0.286 | 0.27 | 0.482 | 0.489 | 0.651 | 0.562 | 0.635
NCI-H1993 | 0.586 | 0.514 | 0.461 | 0.58 | 0.542 | 1.04 | 0.963 | 1.02 | 1.1 | 0.667 | 0.845 | 0.824 | 0.918 | 0.763 | 0.869 | 0.737 | 0.74 | 0.861 | 0.78 | 0.555
ChaGo-K-1 |  | 0.373 | 0.48 | 0.54 | 0.536 | 0.41 | 0.444 | 0.42 | 0.377 | 0.293 | 1.03 | 1.04 | 0.784 | 0.746 | 0.568 | 0.878 | 0.886 | 0.893 | 0.816 | 0.896
NCI-H3122 | 0.393 | 0.37 | 0.364 | 0.44 | 0.35 | 0.61 | 0.647 | 0.625 | 0.598 | 0.558 | 0.539 | 0.57 | 0.692 | 0.73 | 0.54 | 0.917 | 1 | 1.01 | 0.926 | 1.01

From the supplement of paper PMC10307832
